The source of these data is patent publication US11046722B2, “Sulphated disaccharides for the treatment of neuropathic pain” (BIOIBERICA, S.A.U., priority 2017, dated 2021).

In assay [1] the test system is mechanical allodynia induced in mice by chronic ligation of the sciatic nerve. Briefly: Mechanical allodynia produced by chronic ligation of the sciatic nerve (von Frey, 50% pain threshold). The settings on record: 7 days after surgery, 45 minutes before measurement. The assay is classed as in vivo. The source says: In Example 2, an experimental trial on mechanical allodynia induced in mice by chronic ligation of the sciatic nerve is described, according to the model described in the article by Decosterd et al., Spared nerve injury: an animal model of persistent peripheral neuropathic pain, Pain, 2000, 149-158. This model is based on causing mechanical allodynia in mice by means of ligation of two of the three branches of the sciatic nerve (tibial and peroneal), leaving the sural branch intact. The allodynia induced in this manner is quantified by the reduction observed in the threshold force that is necessary to apply in order to produce animal's paw withdrawal in those subjected to the ligation. As described in such example, it is observed that the administration of different doses of compound Ic is effective in reversing the allodynia induced in this model (FIGS. 1 and 2).
For this trial, groups of 6 to 7 mice were used for each group. Mechanical allodynia was induced in the animals (except for the control group) by chronic ligation of the sciatic nerve, and the allodynia induced in this manner was registered 7 days after performing the surgery.
Compound Ic was administered at different doses (3, 30 and 60 mg/Kg) as well as only saline solution as a control, and the positive control gabapentin (40 mg/Kg). The products were administered by stomach tube 45 minutes before performing the allodynia measurement, which was quantified using von Frey filaments, according to the force threshold necessary to cause paw withdrawal of the animal.
The results are summarized in FIG. 2, where the Y-axis represents half of the threshold force that is necessary to apply in order to cause paw withdrawal (50% pain threshold, in grams, g) and the X-axis indicates the different groups and treatments carried out. […]
An analogous test was carried out in which several doses of compound Ic (30, 60 and 120 mg/Kg) and gabapentin (40 mg/Kg) were administered, and the 50% pain threshold was measured at different times after the administration in order to evaluate the kinetic of the pharmacological effect and the total duration of the anti-allodynic effect. […]

Assay [2] concerns mechanical allodynia due to diabetes induced by injecting streptozotocin. Briefly: Diabetic allodynia induced by streptozotocin injection (von Frey, 50% pain threshold). The format is in vivo, mice. The settings on record: streptozotocin 60 mg/Kg i.p. for five days, day 25, 45 minutes after administration. The source says: In Example 5 an experimental trial is described of mechanical allodynia in diabetic mice induced by intraperitoneal streptozotocin injection, based on the model described in the article by Courteix et al., Streptozotocin-induced diabetic rats: behavioural evidence for a model of chronic pain, Pain, 1993, 81-88. This model is based on causing a mechanical allodynia in mice by inducing diabetes by means of intraperitoneal streptozotocin injection. It is observed that the administration of different doses of compound Ic is effective in reversing the allodynia induced by diabetes, as quantified by the statistically significant increase observed in the treated animals, of the threshold force that is necessary to apply in order to produce paw withdrawal in the animals (FIG. 7). […] For the evaluation of the effect of the Ic compound on the allodynia induced in this manner by diabetes, five groups of animals were used with at least 7 animals in each group, and the allodynia was quantified using von Frey filaments, according to the force threshold necessary to cause the animal's paw's withdrawal. Compound Ic was administered orally to the animals by gavage, in a single administration and allodynia was measured in each animal immediately before the administration and 45 minutes after the administration. […]

Take `CO[C@H]1O[C@H](COS(=O)(=O)[O-])[C@@H](OS(=O)(=O)[O-])[C@H](O[C@@H]2O[C@H](C(=O)[O-])[C@@H](O)[C@H](O)[C@H]2O)[C@H]1NC(C)=O.[Na+].[Na+].[Na+]` [Compound Ic, methyl 2-acetamido-2-desoxi-3-O-(β-D-glucopyranosyluronic acid)-4,6-di-O-sulfo-α-D-glucopyranoside trisodium salt]: the anti-allodynic effect entry in assay [1] (3 mg/Kg by stomach tube) and in assay [1] (30 mg/Kg by stomach tube) was “notable” in each case. The analgesic effect result in assay [1] (60 mg/Kg by stomach tube) is recorded as “achieved an analgesic effect”. Also, the “reversal of the allodynia” value in assay [1] (60 mg/Kg by stomach tube) is “total reversal of the allodynia”. For the same compound, the “reversal of the allodynia induced by diabetes” value in assay [2] (10 mg/kg single oral dose by gavage) was “effective at reversing the allodynia”; in assay [2] (30 mg/kg single oral dose by gavage, differences statistically significant), “effective at reversing the allodynia”.
